Values joined by “and” are separate entries in the source; they are usually repeats but may differ in a detail not shown here. Equal entries are not always repeated. Results filed as inconclusive are left out.
Test system: BDF1 mice, M5076 sarcoma s.c., survival/tumor T/C
Assay: NCI In Vivo Anticancer Drug Screen. Data for tumor model Sarcoma M5076 (subcutaneous) in B6D2F1 (BDF1) mice
Experimental: The antitumor activity of compounds was measured in mice bearing transplantable tumors. Survival or tumor size were measured and the results are expressed as the measurement made in the treated group (T) divided by the measurement made in the vehicle treated control group (C). The tumor model used in this assay is Sarcoma M5076 (subcutaneous) in B6D2F1 (BDF1) mice

[1] = endpoint: median survival time, dose: 50.0 mg/kg/injection, schedule: Q01DX009 (ip), vehicle: saline with Tween-80, higher = longer survival
[2] = endpoint: median survival time, dose: 100.0 mg/kg/injection, schedule: Q01DX009 (ip), vehicle: saline with Tween-80, higher = longer survival
[3] = endpoint: median survival time, dose: 200.0 mg/kg/injection, schedule: Q01DX009 (ip), vehicle: saline with Tween-80, higher = longer survival
[4] = endpoint: median tumor weight (est.), dose: 50.0 mg/kg/injection, schedule: Q01DX009 (ip), vehicle: saline with Tween-80, higher = larger tumour
[5] = endpoint: median tumor weight (est.), dose: 200.0 mg/kg/injection, schedule: Q01DX009 (ip), vehicle: saline with Tween-80, higher = larger tumour
[6] = endpoint: median tumor weight (est.), dose: 100.0 mg/kg/injection, schedule: Q01DX009 (ip), vehicle: saline with Tween-80, higher = larger tumour

## COc1ccc(Cl)cc1NC(=O)NNC(=O)C(=O)Nc1ccc(F)cc1
[1]
  T/C: 106 % of control
[2]
  T/C: 106 % of control
[3]
  T/C: 113 % of control
[4]
  T/C: 87 % of control
[5]
  T/C: 115 % of control

## CCC/C=C/C=C/C(=O)OC1/C(=C/C(=O)OC)CC2CC(C(C)O)OC(=O)CC(O)CC3CC(OC(C)=O)C(C)(C)C(O)(CC4C/C(=C/C(=O)OC)CC(/C=C/C(C)(C)C1(O)O2)O4)O3 (configuration not stated)
endpoint: median survival time, dose: 5.0 micrograms/kg/injection, schedule: Q01DX009 (ip), vehicle: saline + Tween-80 + alcohol, higher = longer survival
  T/C: 100 % of control
endpoint: median survival time, dose: 5.0 micrograms/kg/injection, schedule: Q01DX009 (ip), vehicle: saline + alcohol, higher = longer survival
  T/C: 106 % of control
endpoint: median survival time, dose: 10.0 micrograms/kg/injection, schedule: Q01DX009 (ip), vehicle: saline + Tween-80 + alcohol, higher = longer survival
  T/C: 97 % of control
endpoint: median survival time, dose: 10.0 micrograms/kg/injection, schedule: Q01DX009 (ip), vehicle: saline + alcohol, higher = longer survival
  T/C: 96 % of control
endpoint: median survival time, dose: 20.0 micrograms/kg/injection, schedule: Q01DX009 (ip), vehicle: saline + Tween-80 + alcohol, higher = longer survival
  T/C: 111 % of control
endpoint: median survival time, dose: 20.0 micrograms/kg/injection, schedule: Q01DX009 (ip), vehicle: saline + alcohol, higher = longer survival
  T/C: 111 % of control
endpoint: median survival time, dose: 80.0 micrograms/kg/injection, schedule: Q01DX009 (ip), vehicle: saline + Tween-80 + alcohol, higher = longer survival
  T/C: 103 % of control
endpoint: median survival time, dose: 80.0 micrograms/kg/injection, schedule: Q01DX009 (ip), vehicle: saline + alcohol, higher = longer survival
  T/C: 103 % of control
endpoint: median tumor weight (est.), dose: 5.0 micrograms/kg/injection, schedule: Q01DX009 (ip), vehicle: saline + Tween-80 + alcohol, higher = larger tumour
  T/C: 102 % of control
endpoint: median tumor weight (est.), dose: 5.0 micrograms/kg/injection, schedule: Q01DX009 (ip), vehicle: saline + alcohol, higher = larger tumour
  T/C: 198 % of control
endpoint: median tumor weight (est.), dose: 10.0 micrograms/kg/injection, schedule: Q01DX009 (ip), vehicle: saline + Tween-80 + alcohol, higher = larger tumour
  T/C: 89 % of control
endpoint: median tumor weight (est.), dose: 10.0 micrograms/kg/injection, schedule: Q01DX009 (ip), vehicle: saline + alcohol, higher = larger tumour
  T/C: 107 % of control
endpoint: median tumor weight (est.), dose: 20.0 micrograms/kg/injection, schedule: Q01DX009 (ip), vehicle: saline + Tween-80 + alcohol, higher = larger tumour
  T/C: 83 % of control
endpoint: median tumor weight (est.), dose: 20.0 micrograms/kg/injection, schedule: Q01DX009 (ip), vehicle: saline + alcohol, higher = larger tumour
  T/C: 10 % of control
endpoint: median tumor weight (est.), dose: 40.0 micrograms/kg/injection, schedule: Q01DX009 (ip), vehicle: saline + Tween-80 + alcohol, higher = larger tumour
  T/C: 11 % of control

## O=C1c2c(O)ccc(O)c2C(=O)c2c(NCCNCCO)ccc(NCCNCCO)c21
endpoint: median tumor weight (est.), dose: 0.25 mg/kg/injection, schedule: Q02DX011 (ip), vehicle: water, higher = larger tumour
  T/C: 97 % of control
endpoint: median tumor weight (est.), dose: 1.0 mg/kg/injection, schedule: Q02DX011 (ip), vehicle: water, higher = larger tumour
  T/C: 31 % of control and 38 % of control
endpoint: median tumor weight (est.), dose: 2.0 mg/kg/injection, schedule: Q02DX011 (ip), vehicle: water, higher = larger tumour
  T/C: 4 % of control

## CN(Cc1cnc2nc(N)nc(N)c2n1)c1ccc(C(=O)N[C@@H](CCC(=O)O)C(=O)O)cc1
endpoint: median survival time, dose: 0.5 mg/kg/injection, schedule: Q04DX006 (ip), vehicle: saline, higher = longer survival
  T/C: 97 % of control
endpoint: median survival time, dose: 1.0 mg/kg/injection, schedule: Q04DX006 (ip), vehicle: saline, higher = longer survival
  T/C: 106 % of control
endpoint: median survival time, dose: 2.0 mg/kg/injection, schedule: Q04DX006 (ip), vehicle: saline, higher = longer survival
  T/C: 97 % of control
endpoint: median survival time, dose: 4.0 mg/kg/injection, schedule: Q04DX006 (ip), vehicle: saline, higher = longer survival
  T/C: 108 % of control

## CSc1ccc(NC(=O)NNP(=S)(Oc2ccc(C(C)(C)C)cc2)Oc2ccc(C(C)(C)C)cc2)cc1
[1]
  T/C: 102 % of control
[2]
  T/C: 107 % of control
[3]
  T/C: 87 % of control
[4]
  T/C: 92 % of control
[6]
  T/C: 83 % of control
[5]
  T/C: 92 % of control

## COc1cc(C(C)(C)C)cc(OC)c1C(O)(c1c(OC)cc(C(C)(C)C)cc1OC)c1c(OC)cc(C(C)(C)C)cc1OC
endpoint: median survival time, dose: 50.0 mg/kg/injection, schedule: Q04DX003 (ip), vehicle: saline with Tween-80, higher = longer survival
  T/C: 95 % of control
endpoint: median survival time, dose: 100.0 mg/kg/injection, schedule: Q04DX003 (ip), vehicle: saline with Tween-80, higher = longer survival
  T/C: 102 % of control

## Cc1cc(-c2ccc(NC(=O)c3cccc([N+](=O)[O-])c3)c(C)c2)ccc1NC(=O)c1cccc([N+](=O)[O-])c1
[1]
  T/C: 107 % of control
[2]
  T/C: 102 % of control
[3]
  T/C: 102 % of control
[4]
  T/C: 90 % of control
[6]
  T/C: 83 % of control
[5]
  T/C: 71 % of control

## O=P1(N(CCCl)CCCl)NCCCO1 (configuration not stated)
endpoint: median survival time, dose: 6.25 mg/kg/injection, schedule: Q04DX006 (ip), vehicle: saline, higher = longer survival
  T/C: 100 % of control
endpoint: median survival time, dose: 12.5 mg/kg/injection, schedule: Q02DX033 (ip), vehicle: saline, higher = longer survival
  T/C: 121 % of control
endpoint: median survival time, dose: 12.5 mg/kg/injection, schedule: Q04DX006 (ip), vehicle: saline, higher = longer survival
  T/C: 108 % of control
endpoint: median survival time, dose: 25.0 mg/kg/injection, schedule: Q02DX033 (ip), vehicle: saline, higher = longer survival
  T/C: 214 % of control
endpoint: median survival time, dose: 25.0 mg/kg/injection, schedule: Q04DX006 (ip), vehicle: saline, higher = longer survival
  T/C: 124 % of control
endpoint: median survival time, dose: 50.0 mg/kg/injection, schedule: Q04DX006 (ip), vehicle: saline, higher = longer survival
  T/C: 121 % of control
endpoint: median survival time, dose: 64.8 mg/kg/injection, schedule: Q01DX001 (ip), vehicle: saline, higher = longer survival
  T/C: 101 % of control
endpoint: median survival time, dose: 210.0 mg/kg/injection, schedule: Q01DX001 (ip), vehicle: saline, higher = longer survival
  T/C: 155 % of control and 157 % of control

## CS(=O)(=O)OCCCCOS(C)(=O)=O
endpoint: mean tumor weight, dose: 15.0 mg/kg/injection, schedule: Q02DX011 (ip), vehicle: Klucel (hydroxypropylcellulose) (HPC), higher = larger tumour
  T/C: 56 % of control

## O=C1CC(=O)N(C2CCCCC2)C(=O)N1c1ccccc1S(=O)(=O)Oc1ccccc1
[1]
  T/C: 94 % of control
[2]
  T/C: 90 % of control
[3]
  T/C: 100 % of control
[4]
  T/C: 111 % of control
[6]
  T/C: 56 % of control
[5]
  T/C: 96 % of control

## CCC(C)C(NS(=O)(=O)c1ccc(C)cc1)C(=O)O (configuration not stated)
[1]
  T/C: 87 % of control
[2]
  T/C: 92 % of control
[3]
  T/C: 92 % of control

## NC(C/[N+]([O-])=N/O)C(=O)O (configuration not stated)
endpoint: mean tumor weight, dose: 62.5 mg/kg/injection, schedule: Q02DX011 (ip), vehicle: saline, higher = larger tumour
  T/C: 88 % of control
endpoint: mean tumor weight, dose: 125.0 mg/kg/injection, schedule: Q02DX011 (ip), vehicle: saline, higher = larger tumour
  T/C: 108 % of control
endpoint: mean tumor weight, dose: 250.0 mg/kg/injection, schedule: Q02DX011 (ip), vehicle: saline, higher = larger tumour
  T/C: 42 % of control
endpoint: median survival time, dose: 8.78 mg/kg/injection, schedule: Q01DX010 (ip), vehicle: alkali diluted with saline, higher = longer survival
  T/C: 88 % of control and 90 % of control
endpoint: median survival time, dose: 13.2 mg/kg/injection, schedule: Q01DX010 (ip), vehicle: alkali diluted with saline, higher = longer survival
  T/C: 91 % of control and 93 % of control
endpoint: median survival time, dose: 19.8 mg/kg/injection, schedule: Q01DX010 (ip), vehicle: alkali diluted with saline, higher = longer survival
  T/C: 118 % of control
endpoint: median survival time, dose: 29.6 mg/kg/injection, schedule: Q01DX010 (ip), vehicle: alkali diluted with saline, higher = longer survival
  T/C: 114 % of control and 118 % of control
endpoint: median survival time, dose: 44.4 mg/kg/injection, schedule: Q01DX010 (ip), vehicle: alkali diluted with saline, higher = longer survival
  T/C: 105 % of control and 106 % of control
endpoint: median survival time, dose: 52.7 mg/kg/injection, schedule: Q04DX005 (ip), vehicle: alkali diluted with saline, higher = longer survival
  T/C: 89 % of control and 90 % of control
endpoint: median survival time, dose: 66.7 mg/kg/injection, schedule: Q01DX010 (ip), vehicle: alkali diluted with saline, higher = longer survival
  T/C: 115 % of control and 116 % of control
endpoint: median survival time, dose: 79.0 mg/kg/injection, schedule: Q04DX005 (ip), vehicle: alkali diluted with saline, higher = longer survival
  T/C: 93 % of control
endpoint: median survival time, dose: 119.0 mg/kg/injection, schedule: Q04DX005 (ip), vehicle: alkali diluted with saline, higher = longer survival
  T/C: 123 % of control
endpoint: median survival time, dose: 267.0 mg/kg/injection, schedule: Q04DX005 (ip), vehicle: alkali diluted with saline, higher = longer survival
  T/C: 106 % of control and 112 % of control
endpoint: median survival time, dose: 400.0 mg/kg/injection, schedule: Q04DX005 (ip), vehicle: alkali diluted with saline, higher = longer survival
  T/C: 115 % of control
endpoint: median tumor weight (est.), dose: 50.0 mg/kg/injection, schedule: Q02DX011 (ip), vehicle: alkali diluted with saline, higher = larger tumour
  T/C: 91 % of control
endpoint: median tumor weight (est.), dose: 100.0 mg/kg/injection, schedule: Q02DX011 (ip), vehicle: alkali diluted with saline, higher = larger tumour
  T/C: 66 % of control

## CNC(=O)c1ccccc1C1(O)c2ccccc2CCc2ccccc21
[1]
  T/C: 109 % of control
[3]
  T/C: 100 % of control

## Cc1ccc(S(=O)(=O)O)cc1.Cc1ccc(S(=O)(=O)O)cc1.[NH-]C1CCCCC1[NH-].[Pt+2]
endpoint: median survival time, dose: 4.0 mg/kg/injection, schedule: Q02DX032 (ip), vehicle: dextrose, higher = longer survival
  T/C: 94 % of control

## COC1CC23OC2(C1)C1C=CC3N(C(=O)OCC(Cl)(Cl)Cl)N1C(=O)OCC(Cl)(Cl)Cl (configuration not stated)
[1]
  T/C: 100 % of control and 94 % of control
[2]
  T/C: 102 % of control and 89 % of control
[3]
  T/C: 98 % of control and 110 % of control
[4]
  T/C: 111 % of control and 93 % of control
[6]
  T/C: 66 % of control and 77 % of control
[5]
  T/C: 90 % of control

## COc1cc2c[n+](C)c3c4cc5c(cc4ccc3c2cc1OC)OCO5
endpoint: mean tumor weight, dose: 10.0 mg/kg/injection, schedule: Q02DX011 (ip), vehicle: Klucel (hydroxypropylcellulose) (HPC), higher = larger tumour
  T/C: 73 % of control
endpoint: median tumor weight (est.), dose: 10.0 mg/kg/injection, schedule: Q02DX011 (ip), vehicle: Klucel (hydroxypropylcellulose) (HPC), higher = larger tumour
  T/C: 91 % of control
endpoint: median tumor weight (est.), dose: 20.0 mg/kg/injection, schedule: Q02DX011 (ip), vehicle: Klucel (hydroxypropylcellulose) (HPC), higher = larger tumour
  T/C: 56 % of control

Source: PubChem BioAssay AID288 (DTP/NCI, 2004)
